{
  "source": "PubChem BioAssay (NCI)",
  "experiment_in_all_cases": "DTP human tumour cell line panel, 384-well format",
  "key": {"[1]": {"test_system": "786-0 renal"}, "[2]": {"test_system": "A498 renal"}, "[3]": {"test_system": "ACHN renal"}, "[4]": {"test_system": "BT-549 breast"}, "[5]": {"test_system": "CAKI-1 renal"}, "[6]": {"test_system": "CCRF-CEM leukemia"}, "[7]": {"test_system": "COLO 205 colon"}, "[8]": {"test_system": "DU-145 prostate"}, "[9]": {"test_system": "HCC-2998 colon"}, "[10]": {"test_system": "HCT-116 colon"}, "[11]": {"test_system": "HCT-15 colon"}, "[12]": {"test_system": "HL-60(TB) leukemia"}, "[13]": {"test_system": "HOP-62 NSCLC"}, "[14]": {"test_system": "HOP-92 NSCLC"}, "[15]": {"test_system": "HS 578T breast"}, "[16]": {"test_system": "IGROV1 ovarian"}, "[17]": {"test_system": "K-562 leukemia"}, "[18]": {"test_system": "KM12 colon"}, "[19]": {"test_system": "LOX IMVI melanoma"}, "[20]": {"test_system": "M14 melanoma"}, "[21]": {"test_system": "MALME-3M melanoma"}, "[22]": {"test_system": "MCF7 breast"}, "[23]": {"test_system": "MDA-MB-231 breast"}, "[24]": {"test_system": "MDA-MB-468 breast"}, "[25]": {"test_system": "NCI-H226 lung"}, "[26]": {"test_system": "NCI-H322M lung"}, "[27]": {"test_system": "NCI-H460 NSCLC"}, "[28]": {"test_system": "NCI-H522 lung"}, "[29]": {"test_system": "NCI/ADR-RES ovarian"}, "[30]": {"test_system": "OVCAR-4 ovarian"}, "[31]": {"test_system": "PC-3 prostate"}, "[32]": {"test_system": "RPMI-8226 leukemia"}, "[33]": {"test_system": "RXF 393 renal"}, "[34]": {"test_system": "SF-295 CNS"}, "[35]": {"test_system": "SF-539 CNS"}, "[36]": {"test_system": "SK-MEL-2 melanoma"}, "[37]": {"test_system": "SK-MEL-28 melanoma"}, "[38]": {"test_system": "SK-MEL-5 melanoma"}, "[39]": {"test_system": "SK-OV-3 ovarian"}, "[40]": {"test_system": "SN12C renal"}, "[41]": {"test_system": "SNB-19 CNS"}, "[42]": {"test_system": "SR leukemia"}, "[43]": {"test_system": "T-47D breast"}, "[44]": {"test_system": "TK-10 renal"}, "[45]": {"test_system": "UACC-257 melanoma"}, "[46]": {"test_system": "UACC-62 melanoma"}, "[47]": {"test_system": "UO-31 renal"}},
  "note": "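Here, GI50 denotes the concentration required for 50% inhibition of growth. Definition used: TGI = concentration required for complete inhibition of growth.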",
  "data": [
    {"smiles": "COc1cc(C)[nH]c(=O)c1CN1CCc2c(Cl)cc([C@H](OC)C3COC3)c(Cl)c2C1=O", "values": [
      {"measurement": "GI50", "setting": "[1]", "result": "> 100", "unit": "µM"},
      {"measurement": "TGI", "setting": "[1]", "result": "> 100", "unit": "µM"},
      {"measurement": "GI50", "setting": "[2]", "result": "> 100", "unit": "µM"},
      {"measurement": "TGI", "setting": "[2]", "result": "> 100", "unit": "µM"},
      {"measurement": "GI50", "setting": "[3]", "result": "> 100", "unit": "µM"},
      {"measurement": "TGI", "setting": "[3]", "result": "> 100", "unit": "µM"},
      {"measurement": "GI50", "setting": "[4]", "result": "> 100", "unit": "µM"},
      {"measurement": "TGI", "setting": "[4]", "result": "> 100", "unit": "µM"},
      {"measurement": "GI50", "setting": "[5]", "result": "> 100", "unit": "µM"},
      {"measurement": "TGI", "setting": "[5]", "result": "> 100", "unit": "µM"},
      {"measurement": "GI50", "setting": "[6]", "result": "> 75.8", "unit": "µM"},
      {"measurement": "TGI", "setting": "[6]", "result": "> 100", "unit": "µM"},
      {"measurement": "GI50", "setting": "[7]", "result": "> 100", "unit": "µM"},
      {"measurement": "TGI", "setting": "[7]", "result": "> 100", "unit": "µM"},
      {"measurement": "GI50", "setting": "[8]", "result": "> 100", "unit": "µM"},
      {"measurement": "TGI", "setting": "[8]", "result": "> 100", "unit": "µM"},
      {"measurement": "GI50", "setting": "[9]", "result": "> 100", "unit": "µM"},
      {"measurement": "TGI", "setting": "[9]", "result": "> 100", "unit": "µM"},
      {"measurement": "GI50", "setting": "[10]", "result": "> 100", "unit": "µM"},
      {"measurement": "TGI", "setting": "[10]", "result": "> 100", "unit": "µM"},
      {"measurement": "GI50", "setting": "[11]", "result": "> 100", "unit": "µM"},
      {"measurement": "TGI", "setting": "[11]", "result": "> 100", "unit": "µM"},
      {"measurement": "GI50", "setting": "[12]", "result": "> 78.5", "unit": "µM"},
      {"measurement": "TGI", "setting": "[12]", "result": "> 100", "unit": "µM"},
      {"measurement": "GI50", "setting": "[13]", "result": "> 100", "unit": "µM"},
      {"measurement": "TGI", "setting": "[13]", "result": "> 100", "unit": "µM"},
      {"measurement": "GI50", "setting": "[14]", "result": "> 100", "unit": "µM"},
      {"measurement": "TGI", "setting": "[14]", "result": "> 100", "unit": "µM"},
      {"measurement": "GI50", "setting": "[15]", "result": "> 100", "unit": "µM"},
      {"measurement": "TGI", "setting": "[15]", "result": "> 100", "unit": "µM"},
      {"measurement": "GI50", "setting": "[16]", "result": "> 100", "unit": "µM"},
      {"measurement": "TGI", "setting": "[16]", "result": "> 100", "unit": "µM"},
      {"measurement": "GI50", "setting": "[17]", "result": "> 100", "unit": "µM"},
      {"measurement": "TGI", "setting": "[17]", "result": "> 100", "unit": "µM"},
      {"measurement": "GI50", "setting": "[18]", "result": "> 100", "unit": "µM"},
      {"measurement": "TGI", "setting": "[18]", "result": "> 100", "unit": "µM"},
      {"measurement": "GI50", "setting": "[19]", "result": "> 100", "unit": "µM"},
      {"measurement": "TGI", "setting": "[19]", "result": "> 100", "unit": "µM"},
      {"measurement": "GI50", "setting": "[20]", "result": "> 100", "unit": "µM"},
      {"measurement": "TGI", "setting": "[20]", "result": "> 100", "unit": "µM"},
      {"measurement": "GI50", "setting": "[21]", "result": "> 100", "unit": "µM"},
      {"measurement": "TGI", "setting": "[21]", "result": "> 100", "unit": "µM"},
      {"measurement": "GI50", "setting": "[22]", "result": "> 100", "unit": "µM"},
      {"measurement": "TGI", "setting": "[22]", "result": "> 100", "unit": "µM"},
      {"measurement": "GI50", "setting": "[23]", "result": "> 78.3", "unit": "µM"},
      {"measurement": "TGI", "setting": "[23]", "result": "> 100", "unit": "µM"},
      {"measurement": "GI50", "setting": "[24]", "result": "> 100", "unit": "µM"},
      {"measurement": "TGI", "setting": "[24]", "result": "> 100", "unit": "µM"},
      {"measurement": "GI50", "setting": "[25]", "result": "> 100", "unit": "µM"},
      {"measurement": "TGI", "setting": "[25]", "result": "> 100", "unit": "µM"},
      {"measurement": "GI50", "setting": "[26]", "result": "> 100", "unit": "µM"},
      {"measurement": "TGI", "setting": "[26]", "result": "> 100", "unit": "µM"},
      {"measurement": "GI50", "setting": "[27]", "result": "> 100", "unit": "µM"},
      {"measurement": "TGI", "setting": "[27]", "result": "> 100", "unit": "µM"},
      {"measurement": "GI50", "setting": "[28]", "result": "> 100", "unit": "µM"},
      {"measurement": "TGI", "setting": "[28]", "result": "> 100", "unit": "µM"},
      {"measurement": "GI50", "setting": "[29]", "result": "> 100", "unit": "µM"},
      {"measurement": "TGI", "setting": "[29]", "result": "> 100", "unit": "µM"},
      {"measurement": "GI50", "setting": "[30]", "result": "> 100", "unit": "µM"},
      {"measurement": "TGI", "setting": "[30]", "result": "> 100", "unit": "µM"},
      {"measurement": "GI50", "setting": "[31]", "result": "> 100", "unit": "µM"},
      {"measurement": "TGI", "setting": "[31]", "result": "> 100", "unit": "µM"},
      {"measurement": "GI50", "setting": "[32]", "result": 0.0849, "unit": "µM"},
      {"measurement": "GI50", "setting": "[33]", "result": "> 100", "unit": "µM"},
      {"measurement": "TGI", "setting": "[33]", "result": "> 100", "unit": "µM"},
      {"measurement": "GI50", "setting": "[34]", "result": "> 100", "unit": "µM"},
      {"measurement": "TGI", "setting": "[34]", "result": "> 100", "unit": "µM"},
      {"measurement": "GI50", "setting": "[35]", "result": "> 100", "unit": "µM"},
      {"measurement": "TGI", "setting": "[35]", "result": "> 100", "unit": "µM"},
      {"measurement": "GI50", "setting": "[36]", "result": "> 100", "unit": "µM"},
      {"measurement": "TGI", "setting": "[36]", "result": "> 100", "unit": "µM"},
      {"measurement": "GI50", "setting": "[37]", "result": "> 100", "unit": "µM"},
      {"measurement": "TGI", "setting": "[37]", "result": "> 100", "unit": "µM"},
      {"measurement": "GI50", "setting": "[38]", "result": "> 100", "unit": "µM"},
      {"measurement": "TGI", "setting": "[38]", "result": "> 100", "unit": "µM"},
      {"measurement": "GI50", "setting": "[39]", "result": "> 100", "unit": "µM"},
      {"measurement": "TGI", "setting": "[39]", "result": "> 100", "unit": "µM"},
      {"measurement": "GI50", "setting": "[40]", "result": "> 100", "unit": "µM"},
      {"measurement": "TGI", "setting": "[40]", "result": "> 100", "unit": "µM"},
      {"measurement": "GI50", "setting": "[41]", "result": "> 100", "unit": "µM"},
      {"measurement": "TGI", "setting": "[41]", "result": "> 100", "unit": "µM"},
      {"measurement": "GI50", "setting": "[42]", "result": "> 100", "unit": "µM"},
      {"measurement": "TGI", "setting": "[42]", "result": "> 100", "unit": "µM"},
      {"measurement": "GI50", "setting": "[43]", "result": "> 91.9", "unit": "µM"},
      {"measurement": "TGI", "setting": "[43]", "result": "> 100", "unit": "µM"},
      {"measurement": "GI50", "setting": "[44]", "result": "> 100", "unit": "µM"},
      {"measurement": "TGI", "setting": "[44]", "result": "> 100", "unit": "µM"},
      {"measurement": "GI50", "setting": "[45]", "result": "> 100", "unit": "µM"},
      {"measurement": "TGI", "setting": "[45]", "result": "> 100", "unit": "µM"},
      {"measurement": "GI50", "setting": "[46]", "result": "> 100", "unit": "µM"},
      {"measurement": "TGI", "setting": "[46]", "result": "> 100", "unit": "µM"},
      {"measurement": "GI50", "setting": "[47]", "result": "> 100", "unit": "µM"},
      {"measurement": "TGI", "setting": "[47]", "result": "> 100", "unit": "µM"}
    ]}
  ]
}
